# In patent publication US9833497B2, “Human originated EGF domain proteins and use of the same” (CHENGDU SOURCEBIO LIMITED-LIABILITY COMPANY, priority 2013, dated 2017):
# Legend:
# Assay type in all cases: cell-based
# [1] = system: Aeromonas hydrophila; experiment: MIC against Gram-negative bacteria: Aeromonas hydrophila; conditions: for MIC A. hydrophila / MIC against A. hydrophila: 5×10^5 CFU/mL; for MIC: A. hydrophila
# Outline: (§1)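 Inocula prepared by growing LB cultures at 37° C to 0.5 McFarland, centrifuging at 4000×g, and resuspending in fresh medium. Final density 5×10^5 CFU/mL per well with two-fold dilutions of purified EGF domain protein; shaking incubation at 37° C.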
# [2] = system: Serratia marcescens; experiment: MIC against Gram-negative bacteria: Serratia marcescens; conditions: for MIC S. marcescens / MIC against S. marcescens: 5×10^5 CFU/mL; for MIC: S. marcescens
# Outline: as §1
# [3] = system: Klebsiella pneumonia; experiment: MIC against Gram-negative bacteria: Klebsiella pneumonia; conditions: for MIC K. pneumonia / MIC against K. pneumonia: 5×10^5 CFU/mL; for MIC: K. pneumonia
# Outline: as §1
# [4] = system: Citrobacter diversus; experiment: MIC against Gram-negative bacteria: Citrobacter diversus; conditions: for MIC C. diversus / MIC against C. diversus: 5×10^5 CFU/mL; for MIC: C. diversus
# Outline: as §1
# [5] = system: Moraxella catarrhalis; experiment: MIC against Gram-negative bacteria: Moraxella catarrhalis; conditions: for MIC M. catarrhalis / MIC against M. catarrhalis: 5×10^5 CFU/mL; for MIC: M. catarrhalis
# Outline: as §1
# [6] = system: Proteus mirabilis; experiment: MIC against Gram-negative bacteria: Proteus mirabilis; conditions: for MIC P. mirabilis / MIC against P. mirabilis: 5×10^5 CFU/mL; for MIC: P. mirabilis
# Outline: as §1
# [7] = system: E. coli DH5α; experiment: Antibacterial activity: MIC and growth curve against E. coli DH5α in 96-well plate; conditions: minimal inhibitory concentration against E. coli DH5α; 96-well plate, 5×10^5 CFU/mL, 37° C., judged after 8 h
# Outline: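 MIC taken as lowest protein level with no bacterial growth, tracked by A600 every 30 min during 37 °C, 175 rpm culture. Two-fold protein series 50-12.5 μg/mL final, triplicate wells, against 5×10^5 CFU/mL of LB-washed mid-log cells.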
# [8] = system: Proteus vulgaris; experiment: MIC against Gram-negative bacteria: Proteus vulgaris; conditions: for MIC P. vulgaris / MIC against P. vulgaris: 5×10^5 CFU/mL; for MIC: P. vulgaris
# Outline: as §1
# [9] = system: Pseudomonas aeruginosa; experiment: MIC against Gram-negative bacteria: Pseudomonas aeruginosa; conditions: for MIC P. aeruginosa / MIC against P. aeruginosa: 5×10^5 CFU/mL; for MIC: P. aeruginosa
# Outline: as §1
# [10] = system: Enterobacter cloacae; experiment: MIC against Gram-negative bacteria: Enterobacter cloacae; conditions: for MIC E. cloacae / MIC against E. cloacae: 5×10^5 CFU/mL; for MIC: E. cloacae
# Outline: as §1
# [11] = system: E. coli BL21; experiment: MIC against Gram-negative bacteria: E. coli BL21; conditions: for MIC E. coli BL21 / MIC against E. coli BL21: 5×10^5 CFU/mL
# Outline: as §1
# [12] = 10 h cultivation at 37° C., two-fold serial dilution
# [13] = E. coli BL21, 10 h cultivation at 37° C.
substance,measurement,setting,value
PRT1093 (RKDWCESQPCQSRGRCINLWLSYQCDCHRPYEGPNCL; listed as Homo sapiens),MIC A. hydrophila,[1]; [12],50 µg/mL
same,MIC S. marcescens,[2]; [12],12.5 µg/mL
same,MIC K. pneumonia,[3]; [12],50 µg/mL
same,MIC C. diversus,[4]; [12],25 µg/mL
same,MIC M. catarrhalis,[5]; [12],12.5 µg/mL
same,MIC P. mirabilis,[6]; [12],25 µg/mL
same,MIC,[7],12.5 µg/mL
same,MIC P. vulgaris,[8]; [12],50 µg/mL
same,MIC P. aeruginosa,[9]; [12],12.5 µg/mL
same,MIC E. cloacae,[10]; [12],12.5 µg/mL
same,MIC E. coli BL21,[11]; [12],50 µg/mL
PRT617 (CNCNSKGSLSARCDNSGRCSCKPGVTGARCDRCLPGFHMLTDAGCTQ; listed as Homo sapiens),MIC A. hydrophila,"[1]; 96-well plate, 37° C., 10 h",12.5 µg/mL
same,MIC S. marcescens,"[2]; 96-well plate, 37° C., 10 h",25 µg/mL
same,MIC K. pneumonia,"[3]; 96-well plate, 37° C., 10 h",12.5 µg/mL
same,MIC C. diversus,"[4]; 96-well plate, 37° C., 10 h",25 µg/mL
same,MIC M. catarrhalis,"[5]; 96-well plate, 37° C., 10 h",12.5 µg/mL
same,MIC P. mirabilis,"[6]; 96-well plate, 37° C., 10 h",25 µg/mL
same,MIC,[7],25 µg/mL
same,MIC P. vulgaris,"[8]; 96-well plate, 37° C., 10 h",12.5 µg/mL
same,MIC P. aeruginosa,"[9]; 96-well plate, 37° C., 10 h",25 µg/mL
same,MIC E. cloacae,"[10]; 96-well plate, 37° C., 10 h",25 µg/mL
same,MIC E. coli BL21,"[11]; 96-well plate, 37° C., 10 h",12.5 µg/mL
PRT1028 (DENECATGFHRCGPNSVCINLPGSYRCECRSGYEFADDRHTCI; listed as Homo sapiens),MIC,[1]; 10 h cultivation at 37° C.,25 µg/mL
same,MIC,[2]; 10 h cultivation at 37° C.,50 µg/mL
same,MIC,[3]; 10 h cultivation at 37° C.,50 µg/mL
same,MIC,[4]; 10 h cultivation at 37° C.,12.5 µg/mL
same,MIC,[5]; 10 h cultivation at 37° C.,25 µg/mL
same,MIC,[6]; 10 h cultivation at 37° C.,50 µg/mL
same,MIC,[7],12.5 µg/mL
same,MIC,[8]; 10 h cultivation at 37° C.,25 µg/mL
same,MIC,[9]; 10 h cultivation at 37° C.,25 µg/mL
same,MIC,[10]; 10 h cultivation at 37° C.,25 µg/mL
same,MIC,[11]; [13],50 µg/mL
PRT1232 (IGQQCPNMCSGHGSCDHGICRCDQGYQGTECH; listed as Homo sapiens),MIC against A. hydrophila,"[1]; Aeromonas hydrophila, 96-well plate, 37° C., 10 h",50 µg/mL
same,MIC against S. marcescens,"[2]; Serratia marcescens, 96-well plate, 37° C., 10 h",25 µg/mL
same,MIC against K. pneumonia,"[3]; Klebsiella pneumonia, 96-well plate, 37° C., 10 h",12.5 µg/mL
same,MIC against C. diversus,"[4]; Citrobacter diversus, 96-well plate, 37° C., 10 h",25 µg/mL
same,MIC against M. catarrhalis,"[5]; Moraxella catarrhalis, 96-well plate, 37° C., 10 h",12.5 µg/mL
same,MIC against P. mirabilis,"[6]; Proteus mirabilis, 96-well plate, 37° C., 10 h",25 µg/mL
same,MIC,[7],50 µg/mL
same,MIC against P. vulgaris,"[8]; Proteus vulgaris, 96-well plate, 37° C., 10 h",50 µg/mL
same,MIC against P. aeruginosa,"[9]; Pseudomonas aeruginosa, 96-well plate, 37° C., 10 h",25 µg/mL
same,MIC against E. cloacae,"[10]; Enterobacter cloacae, 96-well plate, 37° C., 10 h",25 µg/mL
same,MIC against E. coli BL21,"[11]; E. coli BL21, 96-well plate, 37° C., 10 h",25 µg/mL
PRT1034 (DENECEQNNGGCSEICVNLKNSYRCECGVGRVLRSDGKTCE; listed as Homo sapiens),MIC,[1]; 10 h cultivation at 37° C.,50 µg/mL
same,MIC,[2]; 10 h cultivation at 37° C.,50 µg/mL
same,MIC,[3]; 10 h cultivation at 37° C.,12.5 µg/mL
same,MIC,[4]; 10 h cultivation at 37° C.,50 µg/mL
same,MIC,[5]; 10 h cultivation at 37° C.,12.5 µg/mL
same,MIC,[6]; 10 h cultivation at 37° C.,50 µg/mL
same,MIC,[7],25 µg/mL
same,MIC,[8]; 10 h cultivation at 37° C.,12.5 µg/mL
same,MIC,[9]; 10 h cultivation at 37° C.,25 µg/mL
same,MIC,[10]; 10 h cultivation at 37° C.,50 µg/mL
same,MIC,[11]; [13],50 µg/mL
PRT557 (CGCSPAGTLPEGCDEAGRCLCQPEFAGPHCDRCRPGYHGFPNCQA; listed as Homo sapiens),MIC against A. hydrophila,"[1]; 96-well plate, 37° C., 10 h",25 µg/mL
same,MIC against S. marcescens,"[2]; 96-well plate, 37° C., 10 h",12.5 µg/mL
same,MIC against K. pneumonia,"[3]; 96-well plate, 37° C., 10 h",25 µg/mL
same,MIC against C. diversus,"[4]; 96-well plate, 37° C., 10 h",12.5 µg/mL
same,MIC against M. catarrhalis,"[5]; 96-well plate, 37° C., 10 h",25 µg/mL
same,MIC against P. mirabilis,"[6]; 96-well plate, 37° C., 10 h",12.5 µg/mL
same,MIC,[7],12.5 µg/mL
same,MIC against P. vulgaris,"[8]; 96-well plate, 37° C., 10 h",25 µg/mL
same,MIC against P. aeruginosa,"[9]; 96-well plate, 37° C., 10 h",12.5 µg/mL
same,MIC against E. cloacae,"[10]; 96-well plate, 37° C., 10 h",12.5 µg/mL
same,MIC against E. coli BL21,"[11]; 96-well plate, 37° C., 10 h",25 µg/mL
